Consider 14 molecules from US20240101576A1, “HETEROCYCLIC INHIBITORS OF EGFR AND/OR HER2, FOR USE IN THE TREATMENT OF CANCER” (Scorpion Therapeutics, Inc., priority 2020, published 2024).

Common to all, as to assay type: cell-based
The target of assay [1] is T1, EGFR exon 20 FQEA Ins A763_V764 (Ba/F3 cells) (Homo sapiens, UniProt P00533, INS763FQEA).
T1 construct: expressed in transfected cells; host or cells: Ba/F3 (murine pro-B cells), retroviral transduction, puromycin selection, IL3-independent pool
T1 sequence (P00533 with tags, fused parts or gaps INS763FQEA): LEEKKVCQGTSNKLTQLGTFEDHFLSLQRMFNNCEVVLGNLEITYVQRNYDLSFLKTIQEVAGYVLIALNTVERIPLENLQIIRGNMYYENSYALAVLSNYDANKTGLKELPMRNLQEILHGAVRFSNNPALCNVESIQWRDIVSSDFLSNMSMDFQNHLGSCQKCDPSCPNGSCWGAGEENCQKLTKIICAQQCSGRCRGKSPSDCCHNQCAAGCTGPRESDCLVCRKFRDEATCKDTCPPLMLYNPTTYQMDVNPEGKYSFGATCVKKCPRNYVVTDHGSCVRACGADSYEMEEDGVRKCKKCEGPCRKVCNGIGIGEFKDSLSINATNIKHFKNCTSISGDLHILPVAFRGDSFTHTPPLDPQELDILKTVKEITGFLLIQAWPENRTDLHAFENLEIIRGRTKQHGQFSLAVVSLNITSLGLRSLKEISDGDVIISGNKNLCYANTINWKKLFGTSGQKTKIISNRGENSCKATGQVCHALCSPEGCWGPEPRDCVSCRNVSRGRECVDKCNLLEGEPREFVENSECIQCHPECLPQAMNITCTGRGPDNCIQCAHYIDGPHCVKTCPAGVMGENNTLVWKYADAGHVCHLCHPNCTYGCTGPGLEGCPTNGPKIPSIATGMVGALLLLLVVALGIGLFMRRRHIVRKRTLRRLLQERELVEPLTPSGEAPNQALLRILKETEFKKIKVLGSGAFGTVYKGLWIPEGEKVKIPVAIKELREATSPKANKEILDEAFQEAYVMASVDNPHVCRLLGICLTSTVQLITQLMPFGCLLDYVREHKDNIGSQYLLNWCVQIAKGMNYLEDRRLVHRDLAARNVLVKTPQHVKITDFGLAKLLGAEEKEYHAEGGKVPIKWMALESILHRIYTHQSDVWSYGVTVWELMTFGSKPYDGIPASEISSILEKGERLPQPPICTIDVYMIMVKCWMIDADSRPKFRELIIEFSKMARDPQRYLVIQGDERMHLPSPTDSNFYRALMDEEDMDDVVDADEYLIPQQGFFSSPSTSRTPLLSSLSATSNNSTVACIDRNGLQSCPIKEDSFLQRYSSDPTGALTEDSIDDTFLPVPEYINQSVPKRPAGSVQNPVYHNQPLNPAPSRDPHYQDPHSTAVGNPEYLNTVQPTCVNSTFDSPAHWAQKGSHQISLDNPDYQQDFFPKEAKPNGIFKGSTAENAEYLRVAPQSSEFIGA
The assay is described as follows: Inhibitor activity on EGFR-dependent cell growth (CellTiter-Glo, 72 h), Ba/F3 EGFR exon 20 FQEA Ins. The note with it: read-out: BaF3 FQEA IC50. The essentials:
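For each mutant line, growth depends on EGFR signalling in the absence of IL3. Density per well: 400 for L858R, 600 for the C797S double mutant, 800 for exon 19del and FQEA. Ten threefold dilutions were applied for 72 h. %Inhibition = 100×(DMSO − sample)/(DMSO − medium blank).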
For orientation: Cellular ATP, detected with luciferase, serves as a proxy for viable cell number.

Assay [2] deals with T2, EGFR exon 20 ASV Ins V769_D770 (Ba/F3 cells) (Homo sapiens, UniProt P00533, INS769ASV).
T2 construct: expressed in transfected cells; host or cells: Ba/F3 (murine pro-B cells), retroviral transduction, puromycin selection, IL3-independent pool
T2 sequence (P00533 with tags, fused parts or gaps INS769ASV): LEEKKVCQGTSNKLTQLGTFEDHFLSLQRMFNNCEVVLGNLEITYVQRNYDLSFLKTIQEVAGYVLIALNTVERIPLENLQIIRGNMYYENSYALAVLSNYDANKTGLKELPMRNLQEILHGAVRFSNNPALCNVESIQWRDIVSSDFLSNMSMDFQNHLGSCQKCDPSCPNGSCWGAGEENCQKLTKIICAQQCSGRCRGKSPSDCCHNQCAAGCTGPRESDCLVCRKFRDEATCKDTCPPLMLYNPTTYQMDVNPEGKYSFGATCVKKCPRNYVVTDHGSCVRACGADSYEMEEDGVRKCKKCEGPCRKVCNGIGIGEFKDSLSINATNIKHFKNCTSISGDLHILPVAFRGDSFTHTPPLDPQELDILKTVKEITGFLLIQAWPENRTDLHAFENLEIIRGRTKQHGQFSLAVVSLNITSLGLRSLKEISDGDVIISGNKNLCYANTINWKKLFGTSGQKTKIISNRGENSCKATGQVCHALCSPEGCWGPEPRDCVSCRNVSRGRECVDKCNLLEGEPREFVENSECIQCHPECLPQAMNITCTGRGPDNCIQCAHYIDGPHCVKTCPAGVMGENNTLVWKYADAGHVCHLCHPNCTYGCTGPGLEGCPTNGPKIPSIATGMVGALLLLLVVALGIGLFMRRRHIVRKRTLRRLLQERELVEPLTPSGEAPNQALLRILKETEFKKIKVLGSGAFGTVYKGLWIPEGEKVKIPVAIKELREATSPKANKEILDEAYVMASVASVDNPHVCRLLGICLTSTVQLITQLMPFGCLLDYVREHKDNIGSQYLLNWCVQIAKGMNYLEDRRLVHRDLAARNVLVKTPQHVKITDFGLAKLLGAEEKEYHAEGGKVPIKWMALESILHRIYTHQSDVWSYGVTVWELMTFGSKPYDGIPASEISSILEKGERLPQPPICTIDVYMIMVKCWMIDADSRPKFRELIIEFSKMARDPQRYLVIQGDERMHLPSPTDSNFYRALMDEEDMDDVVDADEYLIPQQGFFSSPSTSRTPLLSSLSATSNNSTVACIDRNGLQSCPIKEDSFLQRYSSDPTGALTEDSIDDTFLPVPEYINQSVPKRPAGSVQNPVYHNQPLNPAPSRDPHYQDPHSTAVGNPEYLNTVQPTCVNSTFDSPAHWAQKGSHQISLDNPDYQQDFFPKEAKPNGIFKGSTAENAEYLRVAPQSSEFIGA
The assay is described as follows: Inhibitor activity on EGFR-dependent cell growth (CellTiter-Glo, 72 h), Ba/F3 EGFR exon 20 ASV Ins. As to conditions: read-out: BaF3 ASV IC50. The essentials: (§1)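 IC50s derive from a sigmoidal dose–response fit of CellTiter-Glo signal. The signal was normalised between […]-treated cells and cell-free medium. Ba/F3 mutant-EGFR cells, seeded at 400–800/well depending on the line, had 72 h of exposure to a 10-point, 3-fold compound series.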

The target of assay [3] is T3, EGFR exon 20 SVD Ins D770_N771 (Ba/F3 cells) (Homo sapiens, UniProt P00533, INS770SVD).
T3 construct: expressed in transfected cells; host or cells: Ba/F3 (murine pro-B cells), retroviral transduction, puromycin selection, IL3-independent pool
T3 sequence (P00533 with tags, fused parts or gaps INS770SVD): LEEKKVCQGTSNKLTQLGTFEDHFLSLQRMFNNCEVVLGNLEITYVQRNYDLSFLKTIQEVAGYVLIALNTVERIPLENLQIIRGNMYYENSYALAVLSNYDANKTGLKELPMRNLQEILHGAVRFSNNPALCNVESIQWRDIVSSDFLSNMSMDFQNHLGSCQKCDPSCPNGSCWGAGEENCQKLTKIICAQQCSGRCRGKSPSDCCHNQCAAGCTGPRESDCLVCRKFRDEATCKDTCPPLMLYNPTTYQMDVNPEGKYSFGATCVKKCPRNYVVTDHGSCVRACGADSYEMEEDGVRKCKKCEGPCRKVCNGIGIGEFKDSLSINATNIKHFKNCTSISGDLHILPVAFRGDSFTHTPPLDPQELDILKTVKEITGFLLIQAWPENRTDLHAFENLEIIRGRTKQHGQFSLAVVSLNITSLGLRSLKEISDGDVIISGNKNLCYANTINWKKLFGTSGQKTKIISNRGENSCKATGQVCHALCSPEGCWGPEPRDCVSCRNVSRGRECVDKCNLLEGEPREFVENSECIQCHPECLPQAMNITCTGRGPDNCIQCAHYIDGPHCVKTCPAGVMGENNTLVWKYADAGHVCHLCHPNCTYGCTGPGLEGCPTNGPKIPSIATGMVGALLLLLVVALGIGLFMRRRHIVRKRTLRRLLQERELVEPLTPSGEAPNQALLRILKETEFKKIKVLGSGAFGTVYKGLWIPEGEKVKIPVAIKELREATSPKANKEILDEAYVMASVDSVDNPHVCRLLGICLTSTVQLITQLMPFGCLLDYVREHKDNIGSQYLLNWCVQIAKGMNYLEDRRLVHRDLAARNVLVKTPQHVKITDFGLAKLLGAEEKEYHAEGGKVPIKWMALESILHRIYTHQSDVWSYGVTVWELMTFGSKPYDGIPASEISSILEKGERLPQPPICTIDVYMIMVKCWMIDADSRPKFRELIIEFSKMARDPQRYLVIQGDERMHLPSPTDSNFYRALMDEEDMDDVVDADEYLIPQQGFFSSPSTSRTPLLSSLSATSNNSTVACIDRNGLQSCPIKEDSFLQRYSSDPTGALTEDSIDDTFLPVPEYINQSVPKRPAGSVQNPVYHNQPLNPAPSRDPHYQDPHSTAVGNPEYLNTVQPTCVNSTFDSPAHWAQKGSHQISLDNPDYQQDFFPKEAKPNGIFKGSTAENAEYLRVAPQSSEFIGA
Put plainly: Inhibitor activity on EGFR-dependent cell growth (CellTiter-Glo, 72 h), Ba/F3 EGFR exon 20 SVD Ins. The note with it: read-out: BaF3 SVD IC50. The essentials:
as §1

The target of assay [4] is T4, EGFR exon 20 NPG Ins D770_N771 (Ba/F3 cells) (Homo sapiens, UniProt P00533, INS770NPG).
T4 construct: expressed in transfected cells; host or cells: Ba/F3 (murine pro-B cells), retroviral transduction, puromycin selection, IL3-independent pool
T4 sequence (P00533 with tags, fused parts or gaps INS770NPG): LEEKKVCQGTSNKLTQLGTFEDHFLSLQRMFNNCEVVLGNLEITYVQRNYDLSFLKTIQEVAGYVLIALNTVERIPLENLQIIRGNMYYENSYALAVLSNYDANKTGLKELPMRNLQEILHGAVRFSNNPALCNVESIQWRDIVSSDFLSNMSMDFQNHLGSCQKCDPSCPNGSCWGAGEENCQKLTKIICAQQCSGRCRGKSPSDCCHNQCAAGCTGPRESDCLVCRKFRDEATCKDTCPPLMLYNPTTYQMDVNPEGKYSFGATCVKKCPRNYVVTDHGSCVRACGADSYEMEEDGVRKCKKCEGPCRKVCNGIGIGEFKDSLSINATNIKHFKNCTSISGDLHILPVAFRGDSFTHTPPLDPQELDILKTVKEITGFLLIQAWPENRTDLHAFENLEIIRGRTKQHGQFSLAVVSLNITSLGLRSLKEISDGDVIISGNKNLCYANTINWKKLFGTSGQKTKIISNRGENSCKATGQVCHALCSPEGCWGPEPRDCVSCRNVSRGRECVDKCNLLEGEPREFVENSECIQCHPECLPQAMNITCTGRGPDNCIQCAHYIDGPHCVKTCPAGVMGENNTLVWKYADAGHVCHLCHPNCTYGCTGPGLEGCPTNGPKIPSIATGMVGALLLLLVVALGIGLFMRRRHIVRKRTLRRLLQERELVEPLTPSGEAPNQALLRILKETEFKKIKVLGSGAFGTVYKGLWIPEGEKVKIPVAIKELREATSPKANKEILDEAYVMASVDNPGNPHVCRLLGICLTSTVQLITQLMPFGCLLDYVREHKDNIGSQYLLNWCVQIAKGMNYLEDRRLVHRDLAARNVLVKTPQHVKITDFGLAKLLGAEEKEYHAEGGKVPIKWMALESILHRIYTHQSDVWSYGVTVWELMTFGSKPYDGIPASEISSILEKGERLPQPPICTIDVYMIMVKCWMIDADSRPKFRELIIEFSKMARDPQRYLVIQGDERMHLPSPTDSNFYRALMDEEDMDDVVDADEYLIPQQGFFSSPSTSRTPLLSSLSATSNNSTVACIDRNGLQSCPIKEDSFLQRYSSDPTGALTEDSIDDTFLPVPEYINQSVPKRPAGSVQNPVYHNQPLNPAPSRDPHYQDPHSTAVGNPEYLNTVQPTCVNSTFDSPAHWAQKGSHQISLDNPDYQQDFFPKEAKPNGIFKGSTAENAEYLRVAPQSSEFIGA
Put plainly: Inhibitor activity on EGFR phosphorylation (pEGFR AlphaLISA, 2 h), Ba/F3 EGFR exon 20 NPG Ins. From the text: Example B. Inhibitor Activity on EGFR phosphorylation (pEGFR)
EGFR mutant Ba/F3 cells were generated by transduction with retrovirus containing vectors expressing EGFR L858R, EGFR exon 19del, EGFR L858R/C797S, EGFR exon 20 NPG Ins D770_N771, EGFR exon 20 ASV Ins V769_D770, or EGFR exon 20 SVD Ins D770_N771 genes along with a puromycin selection marker. Transduced cells are selected with puromycin for 7 days and are then be transferred into culture media without Interleukin 3 (IL3). Surviving cells are confirmed to express EGFR by Western blot and maintained as a pool. CUTO14 cells were obtained from Dr. Robert C. Doebele at the University of Colorado. The IC50 date are included in Table 6 and Table 7.
1.1 Cells are harvested from flask into cell culture medium and the cell number counted.
1.2 Cells are diluted with culture medium to the desired density and 40 μL of cell suspension is added into each well of 384-well cell culture plate and the seeding density is 50K cells/well (Ba/F3) or 12.5K cells/well (CUTO14).
2 Compound Preparation and Treatment
2.1 Test compounds are dissolved to 10 mM in a DMSO stock solution. 45 μL of stock solution is transferred to a 384 polypropylene plate (pp-plate). Perform 3-fold, 10-point dilution via transferring 15 μL compound into 30 μL DMSO using a TECAN (EVO200) liquid handler.
2.2 Spin plates at room temperature at 1,000 RPM for 1 minute.
2.3 Transfer 5 nL of diluted compound from compound source plate into the cell plate.
2.4 After compound treatment for 2 hours, perform pEGFR detection by AlphaLISA for compound treatment plates as described in “Detection” section.
3 Detection by pEGFR AlphaLISA (Perkin-Elmer)
3.1 Plates are removed from incubators and equilibrated at room temperature for 10 minutes, and media was removed
3.2 10 μL of lysis buffer is added and plates shaken at 600 rpm for 1 hr.
3.3 Prepare acceptor mix just before use and dispense 5 μL of acceptor mix to all the wells. Shake 350 rpm for Ihr in the dark
3.4 Prepare donor mix under low light conditions prior to use. Dispense 5 μL of donor mix to all the wells. Mix well on the shaker, seal and wrap in aluminum foil and incubate 1.5 hrs at room temperature in the dark
3.5 Transfer 18.5 μL mixture to OptiPlate 384, and read using an Envision. The IC50 date were included in Table 6 and Table 7.
In general terms: In Alpha technology, singlet oxygen from a donor bead excites a nearby acceptor bead.

The target of the next assay is T5, EGFR WT (Ba/F3 cells) (Homo sapiens, UniProt P00533).
T5 construct: expressed in transfected cells; host or cells: Ba/F3 (murine pro-B cells), retroviral transduction, puromycin selection, maintained with EGF
Put plainly: Inhibitor activity on EGFR-dependent cell growth (CellTiter-Glo, 72 h), Ba/F3 EGFR WT. The note with it: read-out: BaF3 WT IC50. The essentials:
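This growth assay used Ba/F3 cells that depend on wild-type EGFR and are kept in EGF without IL3. Compounds were made up as 10 mM DMSO stocks and diluted 3-fold over 10 points. 120 nL went onto 600 cells/well. After 72 hours, 40 μL CellTiter-Glo was added and luminescence read on EnVision after 30 min.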

Assay [5] deals with T4, EGFR exon 20 NPG Ins D770_N771 (Ba/F3 cells). Put plainly: Inhibitor activity on EGFR-dependent cell growth (CellTiter-Glo, 72 h), Ba/F3 EGFR exon 20 NPG Ins. As to conditions: read-out: BaF3 NPG IC50. The essentials:
as §1

For assay [6], the target named is T2, EGFR exon 20 ASV Ins V769_D770 (Ba/F3 cells). Put plainly: Inhibitor activity on EGFR phosphorylation (pEGFR AlphaLISA, 2 h), Ba/F3 EGFR exon 20 ASV Ins. The note with it: EGFR phosphorylation, AlphaLISA, 2 hours; read-out: ASV IC50 (pEGFR). The essentials:
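Cellular EGFR autophosphorylation assay. IL3-independent Ba/F3 transductants or CUTO14 cells are incubated with serially diluted compound (3-fold, 10 points) for 2 h, then lysed and pEGFR quantified by AlphaLISA.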

The structures appear in SMILES notation. Where only a bound is given, the exact number is not on record here.

Consider `COc1c(F)cccc1Nc1c(-c2ccnc3cccnc23)[nH]c2c1C(=O)NCC2` [compound 442], for which the IC50 was < 100 nM in assay [1]; < 100 nM in assay [2]; < 100 nM in assay [3]; < 100 nM in assay [4]; 100 to 1000 nM on EGFR WT (Ba/F3 cells); < 100 nM in assay [5].

For the molecule `COc1ccc2nccc(-c3[nH]c4c(c3Nc3cccc(F)c3C)C(=O)NCC4)c2n1` [Compound 684, 3-[(3-fluoro-2-methylphenyl)amino]-2-(6-methoxy-1,5-naphthyridin-4-yl)-1H,5H,6H,7H-pyrrolo[3,2-c]pyridin-4-one], the IC50 was < 100 nM in assay [1]; < 100 nM in assay [2]; < 100 nM in assay [3]; < 100 nM in assay [4]; 100 to 1000 nM on EGFR WT (Ba/F3 cells); < 100 nM in assay [5].

In the case of `COc1c(Cl)cccc1Nc1c(-c2ccnc3cnc(OC4COC4)nc23)[nH]c2c1C(=O)NCC2` [compound 441], the IC50 in assay [1] is < 100 nM; in assay [2], < 100 nM; in assay [3] it was < 100 nM; in assay [4], < 100 nM; at EGFR WT (Ba/F3 cells), 100 to 1000 nM; in assay [5], < 100 nM.

As for `COc1ccc2nccc(-c3[nH]c4c(c3Nc3cccc(F)c3OC)C(=O)NCC4)c2n1` [Compound 681, 3-[(3-fluoro-2-methoxyphenyl)amino]-2-(6-methoxy-1,5-naphthyridin-4-yl)-1H,5H,6H,7H-pyrrolo[3,2-c]pyridin-4-one], the IC50 (in assay [1]; in assay [2]; in assay [3]; in assay [4]; at EGFR WT (Ba/F3 cells); in assay [5]) was < 100 nM in each case.

For the molecule `COc1ccc2nccc(-c3[nH]c4c(c3Nc3cccc(F)c3OC)C(=O)NCC43CCNCC3)c2n1` [compound 685], the IC50 was < 100 nM in assay [6], < 100 nM in assay [4], 100 to 1000 nM at EGFR WT (Ba/F3 cells) and 100 to 1000 nM in assay [5].

For the molecule `COc1c(Cl)cccc1Nc1c(-c2ccnc(Nc3cn(C)nn3)n2)[nH]c2c1C(=O)NCC2` [compound 511, 3-[(3-chloro-2-methoxyphenyl)amino]-2-{2-[(1-methyl-1,2,3-triazol-4-yl)amino]pyrimidin-4-yl}-1H,5H,6H,7H-pyrrolo[3,2-c]pyridin-4-one], the IC50 in assay [1] was < 100 nM; in assay [2], < 100 nM; in assay [3], < 100 nM; in assay [4] it was < 100 nM; on EGFR WT (Ba/F3 cells), 100 to 1000 nM; in assay [5], < 100 nM.

On to `COc1c(Cl)cccc1Nc1c(-c2ccnc3ccc(OCC4CC(F)(F)C4)nc23)[nH]c2c1C(=O)NCC2` [compound 757, 3-[(3-chloro-2-methoxyphenyl)amino]-2-[6-[(3,3-difluorocyclobutyl)methoxy]-1,5-naphthyridin-4-yl]-1H,5H,6H,7H-pyrrolo[3,2-c]pyridin-4-one], for which the IC50 in assay [1] was < 100 nM; in assay [2] it was < 100 nM; in assay [3], < 100 nM; in assay [4], < 100 nM; on EGFR WT (Ba/F3 cells), 100 to 1000 nM; in assay [5], 100 to 1000 nM.

Turning to `COc1ccc2nccc(-c3[nH]c4c(c3Nc3cccc(Cl)c3OC)C(=O)NCC4)c2n1` [Compound 149, 3-((3-chloro-2-methoxyphenyl)amino)-2-(6-methoxy-1,5-naphthyridin-4-yl)-1,5,6,7-tetrahydro-4H-pyrrolo[3,2-c]pyridin-4-one], the IC50 in assay [1], in assay [2], in assay [3], in assay [4] and in assay [5] was < 100 nM each time.

As for `COc1c(F)cccc1Nc1c(-c2ccnc(N)n2)[nH]c2c1C(=O)NCC2` [compound 281], the IC50 was 100 to 1000 nM in assay [1], < 100 nM in assay [4], > 1000 nM on EGFR WT (Ba/F3 cells) and < 100 nM in assay [5].

With `Nc1nccc(-c2[nH]c3c(c2Nc2cccc(F)c2OC(F)F)C(=O)NCC3)n1` [compound 299], the IC50 in assay [1] was 100 to 1000 nM; in assay [2], 100 to 1000 nM; in assay [3], 100 to 1000 nM; in assay [4], < 100 nM; on EGFR WT (Ba/F3 cells) it was > 1000 nM; in assay [5] it was 100 to 1000 nM.

For `C=CC(=O)N1CCN(c2ncc3nccc(-c4[nH]c5c(c4Nc4cccc(F)c4OC)C(=O)NCC5)c3n2)CC1` [Compound 576, 3-[(3-fluoro-2-methoxyphenyl)amino]-2-{2-[4-(prop-2-enoyl)piperazin-1-yl]pyrido[3,2-d]pyrimidin-8-yl}-1H,5H,6H,7H-pyrrolo[3,2-c]pyridin-4-one], the concentration for half-maximal inhibition (IC50) (in assay [2]; in assay [3]; in assay [4]; on EGFR WT (Ba/F3 cells); in assay [5]) was < 100 nM each time.

Consider `COc1cc2nccc(-c3[nH]c4c(c3Nc3cccc(Cl)c3OC)C(=O)NCC4)c2nc1OC` [compound 730, 3-[(3-chloro-2-methoxyphenyl)amino]-2-(6,7-dimethoxy-1,5-naphthyridin-4-yl)-1H,5H,6H,7H-pyrrolo[3,2-c]pyridin-4-one], for which the IC50 (in assay [1]; in assay [2]; in assay [3]; in assay [4]; on EGFR WT (Ba/F3 cells); in assay [5]) was < 100 nM throughout.

For the molecule `C=CC(=O)N1CCC(Oc2nc3c(-c4[nH]c5c(c4Nc4cccc(Cl)c4OC)C(=O)NCC5)ccnc3cc2OC)CC1` [Compound 731, 3-[(3-chloro-2-methoxyphenyl)amino]-2-(7-methoxy-6-{[1-(prop-2-enoyl)piperidin-4-yl]oxy}-1,5-naphthyridin-4-yl)-1H,5H,6H,7H-pyrrolo[3,2-c]pyridin-4-one], the IC50 (in assay [2]; in assay [3]; in assay [4]; on EGFR WT (Ba/F3 cells); in assay [5]) was < 100 nM in each case.

For the molecule `COc1c(Cl)cccc1Nc1c(-c2ccnc3cnc(OCCN(C)C)nc23)[nH]c2c1C(=O)NCC2` [compound 502, 3-[(3-chloro-2-methoxyphenyl)amino]-2-{2-[2-(dimethylamino)ethoxy]pyrido[3,2-d]pyrimidin-8-yl}-1H,5H,6H,7H-pyrrolo[3,2-c]pyridin-4-one], the IC50 is 100 to 1000 nM in assay [1]; 100 to 1000 nM in assay [2]; 100 to 1000 nM in assay [3]; < 100 nM in assay [4]; > 1000 nM on EGFR WT (Ba/F3 cells); 100 to 1000 nM in assay [5].

As usually defined, the IC50 is the concentration needed to halve the response being measured.
